From patent US20130156755A1, “CANCER THERAPY USING A COMBINATION OF A HSP90 INHIBITORY COMPOUNDS AND A VEGF INHIBITOR” (Synta Pharmaceuticals Corp., priority 2010, published 2013)
“Also recorded” adds a separate entry of the source.

Legend:
[1] = tested on: human NSCLC cell line NCI-H1975; assay: SCID mouse xenograft model, in vivo growth of NCI-H1975 tumors
Method: (§1) The human non-small cell lung cancer (NSCLC) cell line, NCI-H1975 (ATCC #CRL-5908) was obtained from the American Type Culture Collection (ATCC; Manassas, Va., USA). The human multiple myeloma cell line, RPMI 8226 (ATCC #CCL-155) was also obtained from the ATCC.
(§2) NCI-H1975 cells were cultured in growth media prepared from 50% Dulbecco's Modified Eagle Medium (high glucose), 50% RPMI Media 1640 (4.5 g/L glucose), 10% fetal bovine serum (FBS), 10 mM HEPES, 1% 100× Penicillin-Streptomycin, 1% 100× sodium pyruvate and 1% 100× MEM non-essential amino acids. RPMI 8226 cells were cultured in growth media prepared with RPMI Media 1640 (4.5 g/L glucose), 10% FBS, 10 mM HEPES, 1% 100× Penicillin-Streptomycin, 1% 100× sodium pyruvate and 1% 100× MEM non-essential amino acids. FBS was obtained from ATCC and all other reagents were obtained from Invitrogen Corp. (Carlsbad, Calif., USA). Cells that had been cryopreserved in liquid nitrogen were rapidly thawed at 37° C. and transferred to a tissue culture flask containing growth media and then incubated at 37° C. in a 5% CO2 incubator. To expand the RPMI 8226 cell line, growth media was changed every 2-3 days and cultures were passaged 1:3 to 1:5 every 3-5 days. When the a 175 cm^2 flask reached approximately 20-40×10(6) total cells, the above passaging process was repeated until sufficient cells had been obtained for implantation into mice. To expand the NCI-H1975 cell line, cultures were split 1:5 every 3 days when 175 cm^2 flasks became 85% confluent. Cultures were passaged by washing with 10 mL of room temperature phosphate buffered saline (PBS) and then disassociating cells by adding 5 mL 1× trypsin-EDTA and incubating at 37° C. until the cells detached from the surface of the flask. To inactivate the trypsin, 5 mL of growth media was added and then the contents of the flask were centrifuged to pellet the cells. The supernatant was aspirated and the cell pellet was resuspended in 10 mL of growth media and the cell number determined using a hemocytometer. Cells were seeded into 175 cm^2 flasks containing 50 mL of growth media and incubated at 37° C. in a 5% CO2 incubator. When the flasks reached 85% confluence, the above passaging process was repeated until sufficient cells had been obtained for implantation into mice.
(§3) Six to eight week old, female CB17/Icr-Prkdc^scid/Crl (SCID) mice were obtained from Charles River Laboratories (Wilmington, Mass., USA) Animals were housed 4-5/cage in micro-isolators, with a 12 hr/12 hr light/dark cycle, acclimated for at least 1 week prior to use and fed normal laboratory chow ad libitum. Animals were between seven to thirteen weeks of age at implantation. To implant NCI-H1975 or RPMI 8226 tumor cells into SCID mice, cells were collected as described above, washed in PBS and resusupended at a concentration of 5×10(7) cells/mL in 50% non-supplemented medium and 50% Matrigel Basement Membrane Matrix (#354234; BD Biosciences; Bedford, Mass., USA). Using a 27 gauge needle and 1 cc syringe, 5×10(6) […] or RPMI 8226 cells in 0.1 mL of a cell suspension were injected subcutaneously into the flanks of SCID mice.
(§4) For the NCI-H1975 model, tumors were then permitted to develop in vivo until the majority reached approximately 100-225 mm^3 in tumor volume, which required ˜1½ weeks. For the RPMI 8226 model, tumors were permitted to develop in vivo until the majority reached approximately 80-200 mm^3 in tumor volume, which required ˜3½ weeks. […] Tumor volumes (V) were calculated by caliper measurement of the width (W), length (L) and thickness (T) of tumors using the following formula: V=0.5236×(L×W×T). […]

[2] = tested on: human multiple myeloma cell line RPMI 8226; assay: SCID mouse xenograft model, in vivo growth of RPMI 8226 tumors
Method: as §1, §2, §3, §4

[3] = tested on: human NSCLC cell line HCC827; assay: SCID mouse xenograft study, in vivo growth of HCC827 tumors; settings: 4 doses (FIG. 8)
Method: Tumor-bearing animals (8 mice/group) were injected 1 time per week for a total of 4 doses (arrowheads) with vehicle alone, Compound 1 alone, bevacizumab alone or a combination of Compound 1 and bevacizumab dosed concurrently. Compound 1 was i.v. injected and bevacizumab was i.p. injected. The average tumor volumes for each group (error bars represent SEM) were determined every 2-4 days.

[4] = highest non-severely toxic dose (HNSTD) in tumor-bearing SCID mice; format: in vivo, mouse; settings: i.v. dosed once per week, tumor-bearing SCID mice (data not shown)
Method: The combination of Compound 1 and bevacizumab was also examined in the NCI-H1975 model using higher doses of each test article. […] The HNSTD was determined based on prior studies and was defined as the dose and dosing schedule at which no morbidity was observed, and at which no individual animal lost ≧20% of its body weight and no treatment group lost ≧10% average body weight over the course of the study.

[5] = tested on: RERF-LC-AI^IVP human lung tumor cells; assay: nude mouse xenograft model, in vivo growth rate of RERF-LC-AI^IVP tumors; settings: 5 times per week, 15 doses, nude mice
Method: The human squamous non-small cell lung cancer cell line, RERF-LC-AI (RCB0444; S. Kyoizumi, et al., Cancer. Res. 45:3274-3281, 1985), was obtained from the Riken Cell Bank (Tsukuba, Ibaraki, Japan). The cell line was cultured in growth media prepared from 50% Dulbecco's Modified Eagle Medium (high glucose), 50% RPMI Media 1640, 10% fetal bovine serum (FBS), 1% 100× L-glutamine, 1% 100× penicillin-streptomycin, 1% 100× sodium pyruvate and 1% 100× MEM non-essential amino acids. FBS was obtained from American Type Culture Collection (Manassas, Va., USA) and all other reagents were obtained from Invitrogen Corp. (Carlsbad, Calif., USA). […]
The growth media was replaced every 2-3 days until the flask became 90% confluent, typically in 5-7 days. […] The supernatant was aspirated and the cell pellet was resuspended in 10 ml of growth media and the cell number determined using a hemocytometer. […]
Seven to eight week old, female Crl:CD-1-nuBR (nude) mice were obtained from Charles River Laboratories (Wilmington, Mass., USA) Animals were housed 4-5/cage in micro-isolators, with a 12 hr/12 hr light/dark cycle, acclimated for at least 1 week prior to use and fed normal laboratory chow ad libitum. […] Tumor volumes (V) were calculated by caliper measurement of the width (W), length (L) and thickness (T) of tumors using the following formula: V=0.5236×(L×W×T). […]

[6] = body weight changes in nude mouse RERF-LC-AI^IVP xenograft study; format: in vivo; settings: 200 mg/kg body weight i.p., 5 times per week, 15 doses, nude mice
Method: Seven to eight week old, female Crl:CD-1-nuBR (nude) mice were obtained from Charles River Laboratories (Wilmington, Mass., USA) Animals were housed 4-5/cage in micro-isolators, with a 12 hr/12 hr light/dark cycle, acclimated for at least 1 week prior to use and fed normal laboratory chow ad libitum. Studies were conducted on animals between 8 and 12 weeks of age at implantation. To implant RERF-LC-AI tumor cells into nude mice, the cells were trypsinized as above, washed in PBS and resuspended at a concentration of 50×10(6) cells/ml in 50% non-supplemented RPMI Media 1640 and 50% Matrigel Basement Membrane Matrix (#354234; BD Biosciences; Bedford, Mass., USA). Using a 27 gauge needle and 1 cc syringe, 0.1 ml of the cell suspension was injected subcutaneously into the flank of each nude mouse. Tumor volumes (V) were calculated by caliper measurement of the width (W), length (L) and thickness (T) of tumors using the following formula: V=0.5236×(L×W×T).
The Hsp90 inhibitor, 17-allylamino-17-demethoxygeldanamycin (17-AAG), was employed as a positive control (Albany Molecular Research, Albany, N.Y., USA). Stock solutions of test articles were prepared by dissolving the appropriate amounts of each compound in dimethyl sulfoxide (DMSO) by sonication in an ultrasonic water bath. Stock solutions were prepared weekly, stored at −20° C. and diluted fresh each day for dosing. […]

CC(C)c1cc(-c2nnc(O)n2-c2ccc3c(ccn3C)c2)c(O)cc1O [Compound 1, 3-(2,4-DIHYDROXY-5- ISOPROPYL-PHENYL)-4-(1- METHYL-INDOL-5-YL)-5- HYDROXY-[1,2,4] TRIAZOLE]
% T/C value ([1]; 50 mg/kg i.v. once per week (3 doses), day 29, SCID mice): 39%
tumor growth ([1]; 50 mg/kg i.v. once per week, 3 doses (FIG. 3)): moderately inhibited tumor growth
% T/C value ([1]; 150 mg/kg i.v. once per week (4 doses), day 38, SCID mice): 3%
tumor growth ([1]; 150 mg/kg i.v. once per week, 4 doses (FIG. 4)): substantially inhibited tumor growth
tumor growth ([2]; 12.5 mg/kg i.v. 5 times per week, 15 doses (FIG. 5)): moderately inhibited tumor growth
% T/C value ([2]; 12.5 mg/kg i.v. five times per week (15 doses), day 49, SCID mice): 63%
% T/C value ([2]; second study, single dose 12.5 mg/kg, over three days (data not shown)): 83%
tumor growth ([3]; 150 mg/kg i.v. once per week): moderately inhibited tumor growth
highest non-severely toxic dose (HNSTD) [4]: 150 mg/kg

C=CCNC1=C2C[C@@H](C)C[C@H](OC)[C@H](O)[C@@H](C)/C=C(\C)[C@H](OC(N)=O)[C@@H](OC)/C=C\C=C(/C)C(=O)NC(=CC1=O)C2=O [Compound 17-AAG, 17-allylamino-17-demethoxygeldanamycin, reference compound]
tumor growth (growth rate of tumor cells) ([5]; 75 mg/kg body weight i.p.): inhibited tumor growth; also recorded: decreased the growth rate

CCc1cc(-c2nnc(S)n2-c2ccc(OC)c3c2ccn3C(C)C)c(O)cc1O [Compound 26, 3-(2,4-DIHYDROXY-5-ETHYL- PHENYL)-4-(1-ISOPROPYL-7- METHOXY-INDOL-4-YL)-5- MERCAPTO-[1,2,4] TRIAZOLE]
tumor growth (growth rate of tumor cells) ([5]; 200 mg/kg body weight i.p.): inhibited tumor growth; also recorded: decreased the growth rate
overt toxicity (effect on body weights) [6]: not overtly toxic; also recorded: not associated with overt toxicity

bevacizumab: Humanized monoclonal antibody that blocks VEGF; VEGF inhibitor purchased from Genentech [reference compound]
% T/C value ([1]; 2 mg/kg i.p. once per week (3 doses), day 29, SCID mice): 18%
tumor growth ([1]; 2 mg/kg i.p. once per week, 3 doses (FIG. 3)): moderately inhibited tumor growth
% T/C value ([1]; 10 mg/kg i.p. once per week (4 doses), day 38, SCID mice): 17%
tumor growth ([1]; 10 mg/kg i.p. once per week, 4 doses (FIG. 4)): moderately inhibited tumor growth
tumor growth ([2]; 0.3 mg/kg i.p. 2 times a week, 6 doses (FIG. 5)): moderately inhibited tumor growth
% T/C value ([2]; 0.3 mg/kg i.p. twice per week (6 doses), day 49, SCID mice): 26%
% T/C value ([2]; second study, single dose 1 mg/kg, over three days (data not shown)): 42%
tumor growth ([3]; 10 mg/kg i.p. once per week): moderately inhibited tumor growth
